This is an account of results in US20230142274A1 (SIMCERE PHARMACEUTICAL CO., LTD., priority 2020, published 2023).

Like-named read-outs stand apart in the source and are kept apart here.

One test concerns WI-38 cells. Put plainly: Inhibition of human WI-38 embryonic lung cell proliferation (Cell-Titer Glo). In kind it is cell-based. To be noted: 3 days incubation, read-out: Anti-Proliferative Activity Against WI-38 cells IC50. As to the method:
Introduction of the experimental principle: After the RAD51 inhibitor to be tested was co-incubated with human embryonic lung cells for a period of time, the influence of the test compound on cell proliferation was measured by a method for counting cell proliferation based on the quantitative measurement of intracellular ATP content.
Materials and Cells: WI-38 cells were purchased from ATCC; fetal bovine serum, 1640 medium and penicillin-streptomycin were purchased from Gibco Inc. (U.S.), 96-well plates were purchased from Corning Inc. (U.S.), and Cell-Titer Glo reagent was purchased from Promega Corporation (U.S.).
Cell culture: WI-38 cells were cultured in an EMEM culture medium containing 10% fetal bovine serum and 1% penicillin-streptomycin at 37° C. in an atmosphere containing 5% CO2. Cells in logarithmic growth phase could be used for experiments.
(§1) Assay of cell proliferation and viability: Cell-Titer Glo reagent was used to measure the inhibitory activities of the compounds on the proliferation of WI-38 cell strain. The concentration of cells was adjusted, and the cells were seeded in a 96-well plate and cultured at 37° C. in an atmosphere containing 5% CO2 for 24 hours. The powder of the compound was dissolved in 100% DMSO to form a 10 mM solution. 10 μl of the solution of the compound was aspirated and transferred into a 96-well compound plate containing 20 μl of DMSO solution in each well for 3-fold dilution and was then formulated to 10 serial dilutions. Thereafter, 2 μl of the solution of the compound was aspirated from the corresponding well and added correspondingly into a 96-well intermediate compound dilution plate containing 78 μl of complete culture medium in each well. The resultant was mixed well, and the plate was centrifuged at 1000 rpm for 1 minute. Finally, 10 μl of the solution of the compound was aspirated from the corresponding well of the 96-well intermediate compound dilution plate, and transferred into the corresponding well of the cell culture plate containing 90 μl of complete culture medium. The final concentration of DMSO was 0.25%. After the addition of the compound, the cells were continued to be incubated for 3 days at 37° C. in an atmosphere containing 5% CO2. Cell-Titer Glo reagent was added to measure cell viability.
% Compound inhibition was calculated and IC50 of the compound was fitted;
(§2) % Compound inhibition=1−100%×(Signal−Bottom)/(Top−Bottom)

Another test deals with Daudi cells. The test can be described thus: Inhibition of human Daudi lymphoma cell proliferation (Cell-Titer Glo). In kind it is cell-based. To be noted: 3 days incubation, read-out: Anti-Proliferative Activity Against Daudi cells IC50. As to the method:
Introduction of the experimental principle: After the RAD51 inhibitor to be tested was co-incubated with cancer cells for a period of time, the influence of the test compound on cell proliferation was measured by a method for counting cell proliferation based on the quantitative measurement of intracellular ATP content.
Materials and Cells: Daudi cells were purchased from ATCC; fetal bovine serum, 1640 medium and penicillin-streptomycin were purchased from Gibco Inc. (U.S.), 96-well plates were purchased from Corning Inc. (U.S.), and Cell-Titer Glo reagent was purchased from Promega Corporation (U.S.).
Cell culture: Daudi cells were cultured in 1640 culture medium containing 10% fetal bovine serum and 1% penicillin-streptomycin at 37° C. in an atmosphere containing 5% CO2. Cells in logarithmic growth phase could be used for experiments.
as §1, with “of Daudi” for “of WI-38”, “solution” for “solution in each well”, “formulated into” for “formulated to”
% Compound inhibition was calculated and IC50 of the compound was filled;
as §2

The IC50 is the concentration at which inhibition is half-maximal.

In the case of `CC(C)OC(=O)N[C@H]1CC[C@H](c2ncc(-c3ccc(Nc4cnn(CCF)c4)cc3P3(=O)CCC3)s2)CC1` [Example 104, isopropyl trans-(4-(5-(4-((1-(2-fluoroethyl)-1H-pyrazol-4-yl)amino)-2-(1-oxophosphetan-1-yl)phenyl)thiazol-2-yl)cyclohexyl)carbamate], the IC50 was > 25000 nM with WI-38 cells (Homo sapiens, 72 h) and 23 nM in the test on Daudi cells (Homo sapiens, 72 h).

Take `CC(C)OC(=O)NC1CCC(c2ncc(-c3ccc(N/C(=N/C#N)NCc4ccccc4)cc3S(=O)(=O)NC(C)(C)C)s2)CC1` (stereo not drawn) [Example 14, isopropyl trans-N-[4-[5-[4-[[(E)-N-benzyl-N′-cyanocarbamoylamino]amino]-2-(tert-butylsulfamoyl)phenyl]thiazol-2-yl]cyclohexyl]carbamate]: the half-inhibitory concentration (IC50) in the test on WI-38 cells (Homo sapiens, 72 h) is > 25000 nM; with Daudi cells (Homo sapiens, 72 h) it was 450 nM.

`CC(C)OC(=O)N[C@H]1CC[C@H](c2ncc(-c3ccc(Nc4cc(C5CC5)[nH]n4)cc3S(=O)(=O)C(C)C)s2)CC1` [Example 45, isopropyl trans-N-[4-[5-[4-[(5-cyclopropyl-1H-pyrazol-3-yl)amino]-2-isopropylsulfonyl-phenyl]thiazol-2-yl]cyclohexyl]carbamate]: the IC50 in the test with WI-38 cells (Homo sapiens, 72 h) was > 25000 nM; with Daudi cells (Homo sapiens, 72 h), 62 nM.

`CC(C)OC(=O)NC1CCC(c2ncc(-c3ccc(NC(=O)C4Cc5ccccc5CN4)cc3S(=O)(=O)NC(C)(C)C)s2)CC1` (stereo not drawn) [Example 13, isopropyl trans-N-[4-[5-[2-(tert-butylsulfamoyl)-4-(1,2,3,4-tetrahydroisoquinoline-3-carbonylamino)phenyl]thiazol-2-yl]cyclohexyl]carbamate]: the concentration for half-maximal inhibition (IC50) with WI-38 cells (Homo sapiens, 72 h) is > 25000 nM; in the test with Daudi cells (Homo sapiens, 72 h), 410 nM.

For the compound `CC(C)OC(=O)N[C@H]1CC[C@H](c2ncc(-c3ccc(Nc4cn(C)nn4)cc3S(=O)(=O)C(C)C)s2)CC1` [Example 39, isopropyl trans-(4-(5-(2-(isopropylsulfonyl)-4-((1-methyl-1H-1,2,3-triazol-4-yl)amino)phenyl)thiazol-2-yl)cyclohexyl)carbamate], the IC50 in the test on WI-38 cells (Homo sapiens, 72 h) is > 25000 nM; in the test on Daudi cells (Homo sapiens, 72 h), 230 nM.

Regarding `CC(C)OC(=O)Nc1ccc(-c2cnc(N3CC4C(C3)C4NC(=O)OC(C)C)s2)c(S(=O)(=O)NC(C)(C)C)c1` (stereo not drawn) [Example 9, isopropyl endo-N-[3-(tert-butylsulfamoyl)-4-[2-[6-(isopropoxycarbonylamino)-3-azabicyclo[3.1.0]hex-3-yl]thiazol-5-yl]phenyl]carbamate], the half-inhibitory concentration (IC50) with WI-38 cells was > 25000 nM; in the test on Daudi cells, 2060 nM.

Take `CC(C)OC(=O)Nc1ccc(-c2nnc([C@H]3CC[C@H](NC(=O)OC(C)C)CC3)s2)c(S(=O)(=O)NC(C)(C)C)c1` [Example 5, isopropyl trans-N-[3-(tert-butylsulfamoyl)-4-[5-[4-(isopropoxycarbonylamino)cyclohexyl]-1,3,4-thiadiazol-2-yl]phenyl]carbamate]: the half-maximal inhibitory concentration (IC50) with WI-38 cells (Homo sapiens, 72 h) was > 25000 nM; in the test with Daudi cells (Homo sapiens, 72 h), 1160 nM.

On to `CC(C)OC(=O)Nc1ccc(-c2nnc([C@H]3CC[C@H](NC(=O)OC(C)C)CC3)s2)c(S(=O)(=O)C(C)C)c1` [Example 25, isopropyl trans-N-[4-[5-[4-(isopropoxycarbonylamino)cyclohexyl]-1,3,4-thiadiazol-2-yl]-3-isopropylsulfonyl-phenyl]carbamate], for which the IC50 with WI-38 cells (Homo sapiens, 72 h) is > 25000 nM; in the test with Daudi cells (Homo sapiens, 72 h), 740 nM.

`CC(C)OC(=O)N[C@H]1CC[C@H](c2ncc(-c3ccc(NC(=O)COc4ccccc4)cc3S(=O)(=O)NC(C)(C)C)s2)CC1` [Example 15, isopropyl trans-N-[4-[5-[2-(tert-butylsulfamoyl)-4-[(2-phenoxyacetyl)amino]phenyl]thiazol-2-yl]cyclohexyl]carbamate]: the 50% inhibitory concentration (IC50) with WI-38 cells (Homo sapiens, 72 h) is > 25000 nM; in the test on Daudi cells (Homo sapiens, 72 h), 280 nM.

`Cc1cc(Nc2ccc(-c3cnc([C@H]4CC[C@H](NC(=O)OC(C)C)CC4)s3)c(S(=O)(=O)C(C)C)c2)no1` [Example 37, isopropyl trans-(4-(5-(2-(isopropylsulfonyl)-4-((5-methylisoxazol-3-yl)amino)phenyl)thiazol-2-yl)cyclohexyl)carbamate]: the IC50 in the test with WI-38 cells (Homo sapiens, 72 h) was > 25000 nM; in the test with Daudi cells (Homo sapiens, 72 h), 330 nM.

Take `CC(C)OC(=O)N[C@H]1CC[C@H](c2ncc(-c3ccc(Nc4cnn(C)c4)cc3S(=N)(=O)C3CC3)s2)CC1` (stereo partly drawn) [Example 69, isopropyl trans-(4-(5-(2-(cyclopropanesulfonimidoyl)-4-((1-methyl-1H-pyrazol-4-yl)amino)phenyl]thiazol-2-yl)cyclohexyl)carbamate]: the IC50 in the test on WI-38 cells (Homo sapiens, 72 h) is > 25000 nM; in the test with Daudi cells (Homo sapiens, 72 h) it was 30 nM.

For `CC(C)OC(=O)N[C@H]1CC[C@H](c2ncc(-c3ccc(Nc4ncco4)cc3S(=N)(=O)C3CC3)s2)CC1` (stereo partly drawn) [Example 99, isopropyl trans-(4-(5-(2-(cyclopropanesulfonimidoyl)-4-(oxazol-2-ylamino)phenyl)thiazol-2-yl)cyclohexyl)carbamate], the IC50 with Daudi cells (Homo sapiens, 72 h) stood at 36 nM.

Consider `CC(C)OC(=O)N[C@H]1CC[C@H](c2ncc(-c3ccc(NC(=O)C4CC4)cc3S(=O)(=O)C3CC3)s2)CC1` [Example 74, isopropyl trans-(4-(5-(4-(cyclopropanecarboxamido)-2-(cyclopropylsulfonyl)phenyl)thiazol-2-yl)cyclohexyl)carbamate], for which the IC50 in the test on Daudi cells (Homo sapiens, 72 h) is 90 nM.

Take `CC(C)OC(=O)Nc1ccc(-c2cnc([C@H]3CC[C@H](NC(=O)OC(C)C)CC3)s2)c(S(=O)(=O)CC(C)(C)C)c1` [Example 24, isopropyl trans-N-[3-(2,2-dimethylpropylsulfonyl)-4-[2-[4-(isopropoxycarbonylamino)cyclohexyl]thiazol-5-yl]phenyl]carbamate]: the IC50 in the test with Daudi cells (Homo sapiens, 72 h) was 2270 nM.

Turning to `Cc1cc(Nc2ccc(-c3ncc([C@H]4CC[C@@H](NC(=O)OC(C)C)CC4)s3)c(S(=O)(=O)C3CC3)c2)n[nH]1` [Example 91-1, isopropyl cis-(4-(2-(2-(cyclopropylsulfonyl)-4-((5-methyl-1H-pyrazol-3-yl)amino)phenyl)thiazol-5-yl)cyclohexyl)carbamate], the half-maximal inhibitory concentration (IC50) with Daudi cells (Homo sapiens, 72 h) came to 60 nM.

Take `Cc1cc(Nc2ccc(-c3ccc([C@H]4CC[C@H](NC(=O)OC(C)C)CC4)s3)c(S(=O)(=O)C3CC3)c2)n[nH]1` [Example 89, isopropyl trans-(4-(5-(2-(cyclopropylsulfonyl)-4-((5-methyl-1H-pyrazol-3-yl)amino)phenyl)thiophen-2-yl)cyclohexyl)carbamate]: the half-maximal inhibitory concentration (IC50) in the test with Daudi cells (Homo sapiens, 72 h) was determined as 7 nM.

Consider `Cc1cc(Nc2ccc(-c3cnc([C@H]4CC[C@H](NC(=O)OC(C)C)CC4)s3)c(S(=N)(=O)C3COC3)c2)n[nH]1` (stereo partly drawn) [Example 105, isopropyl trans-N-[4-[5-[4-[(5-methyl-1H-pyrazol-3-yl)amino]-2-(oxetan-3-ylsulfonimidoyl)phenyl]thiazol-2-yl]cyclohexyl]carbamate], for which the IC50 with Daudi cells (Homo sapiens, 72 h) is 26 nM.

For `Cc1cc(Nc2ccc(-c3cnc([C@H]4CC[C@H](NC(=O)OC(C)C)CC4)s3)c(S(=O)(=O)C(F)(F)F)c2)n[nH]1` [Example 51, isopropyl trans-N-[4-[5-[4-[(5-methyl-1H-pyrazol-3-yl)amino]-2-(trifluoromethylsulfonyl)phenyl]thiazol-2-yl]cyclohexyl]carbamate], the IC50 in the test with Daudi cells (Homo sapiens, 72 h) came to 65 nM.
